These results are taken from PubChem BioAssay AID651697 (Sanford-Burnham Center for Chemical Genomics, 2012).

This test has as its target Sentrin-specific protease 1 (Homo sapiens) (UniProt Q9P0U3). Put plainly: SENP1 catalytic domain blockers, concentration series – biochemical, kinetic FRET, dose response (AID 651697). As to conditions: recombinant SENP1 catalytic domain, kinetic FRET protease assay.

Sentrin-specific protease 1 (Homo sapiens), sequence (Q9P0U3 419-644 limits assumed): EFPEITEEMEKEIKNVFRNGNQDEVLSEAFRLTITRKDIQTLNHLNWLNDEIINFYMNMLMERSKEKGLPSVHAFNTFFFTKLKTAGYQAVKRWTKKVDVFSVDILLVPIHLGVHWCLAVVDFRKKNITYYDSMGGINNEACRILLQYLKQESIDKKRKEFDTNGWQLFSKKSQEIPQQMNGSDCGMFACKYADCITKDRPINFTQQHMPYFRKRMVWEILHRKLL

On to `Oc1ccc(Cl)cc1C1=Nc2ccccc2N=C(c2ccco2)C1`, for which the IC50 was 8.37 µM.

Take `COCCNC(=O)c1cccc2c1C(=O)c1ccc(N3CCOCC3)cc1S2(=O)=O`: the IC50 was 14.2 µM.

For `O=C(c1ccccc1)[C@@H]1[C@@H]2C(=O)N(c3ccc(F)cc3)C(=O)[C@@H]2C2CCCN21` (some centres undefined), the IC50 is 7.71 µM.

For `Cc1nc2ccc(NS(=O)(=O)c3ccc(F)cc3F)cc2s1`, the half-inhibitory concentration (IC50) is 18.5 µM.

As a reminder, the IC50 is the concentration needed to halve the response being measured.
